One data set deals with BT474 xenograft. Put plainly: Mouse xenograft study, BT474 breast cancer. The class given is in vivo, nude mice. The conditions noted are these: BT474 breast cancer xenograft, nude mice. The protocol:
(§1) Mouse Xenograft Studies: Xenograft studies adapted from a previous published protocol (Wu et al, Cancer Res. 2008 Oct. 15; 68(20):8393-9). Female BALB/c nude (nu/nu) mice (5-8 weeks) were obtained from Lasco (Industrial Park, Tai-Ping Area, Taichung City, Taiwan). The animals were maintained under specific pathogen-free conditions, and food and water were supplied ad libitum. Housing and all procedures involving animals were performed according to protocols approved by the IACUC in DCB. Nude mice were inoculated with 17-β-estradiol pellets 72 to 96 h before implantation of BT-474 cells. For subcutaneous implantation of BT-474 cells, cells (1×10^7 in matrix gel/animal) were injected subcutaneously into the right subaxillary region. Treatment started when average tumor volume reached about 200 mm^3; mice were treated (p.o., QD/28 cycles in total) with vehicle A (0.5% methylcellulose), or candidate compounds formulated in vehicle A (10-50 mg/kg body weight). Perpendicular diameter measurement of each tumor were made with digital calipers and the volume of the tumor calculated using formula (L×W×W)/2, in which L and W represent the length and the width, respectively. Body weights were measured three times weekly.
(§2) The in vivo effectiveness of contemplated compounds in the reduction of tumor volume in nude mice is readily apparent.
(§3) Development of resistance to treatment in advanced stage tumors is a well known phenomenon. Activity of select Hec1 inhibitor in such late stage tumors was determined by re-dosing of BT474 xenografted animals that had previously subjected to 35 days of treatment with 110095 (compound 27 of Table 1). Re-treatment with 110095 was starting on day 42 and continued for 21 days.

For a further data set, the system named is MDA-MB-231 xenograft. Put plainly: Mouse xenograft study, MDA-MB-231 breast cancer. The data set is classed as in vivo. The conditions noted are these: MDA-MB-231 breast cancer xenograft, nude mice.
Data set [1] in a line: Body weight in mouse xenograft studies. The conditions noted are these: xenograft studies FIG. 7A-7D, nude mice. The class given is in vivo, nude mice. The protocol: as §1, §2, §3
The next data set deals with Huh-7 xenograft. Put plainly: Mouse xenograft study, Huh-7 liver cancer. The data set is classed as in vivo. As to conditions: Huh-7 liver cancer xenograft, nude mice.
For the next data set, the system named is MDA-MB-468. Put plainly: Antiproliferation assay (MTS), MDA-MB-468 cells. The class given is cell-based. As to conditions: Homo sapiens, MDA-MB-468, 96 h, Table 2, read-out: Antiproliferative IC50 MDA-MB-468. Summed up: (§4)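 Cells seeded after overnight attachment were treated in triplicate for 96 h at 37 °C, 5% CO2, final DMSO below 1%. Viability read by MTS absorbance; concentration-response curves fitted by linear regression against DMSO controls.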

A further data set has as its system cancer cells. Put plainly: DNA content analysis (propidium iodide, FACS). The data set is classed as cell-based. The procedure:
DNA Content Analysis: Cells were plated in a 10-cm culture plate and cultured overnight. Cells were incubated with the compound for the indicated time and collected at the indicated time points. Cells were fixed with 70% ethanol overnight, stained with propidium iodide solution (1.25 mg/ml propidium iodide (Sigma) and 20 μl/ml […] in PBS) and subjected to fluorescence activated cell sorting (FACS). The results were analyzed by Cell Quest software (BD Biosciences, San Jose Calif. 95131 USA).

The subject of the next data set is MDA-MB-231. Put plainly: Antiproliferation assay (MTS), MDA-MB-231 cells. The class given is cell-based. The conditions noted are these: Homo sapiens, MDA-MB-231, 96 h, read-out: Antiproliferative IC50 MDA-MB-231, Table 2. The method in brief:
as §4

On to `COc1ccc(Oc2cc(C)c(-c3csc(NC(=O)c4ccncc4)n3)c(C)c2)cc1` [II-95, N-(4-(4-(4-Methoxyphenoxy)-2,6-dimethylphenyl)thiazol-2-yl)isonicotinamide], for which the xenograft tumor outgrowth entry in the data set on BT474 xenograft, in the data set with MDA-MB-231 xenograft and in the data set on Huh-7 xenograft was “inhibition of xenograft tumor outgrowth” in each case. Besides, the body weight entry in data set [1] is “body weight remained constant”.
Regarding `COc1ccc(Oc2cc(C)c(-c3csc(NC(=O)c4ccnc(F)c4)n3)c(C)c2)cc1` [II-98, 2-Fluoro-N-(4-(4-(4-methoxyphenoxy)-2,6-dimethylphenyl)thiazol-2-yl)isonicotinamide], the IC50 in the data set on MDA-MB-468 was found to be 0.04 µM; with MDA-MB-231 it was 0.02 µM. Besides, the “sub-G1 population (apoptotic cells)” value in the data set on cancer cells is “increase in the sub-G1 population”.

One may read the IC50 as the concentration at which inhibition is half-maximal.

(Values after patent publication US8999983B2, “Modulators of Hec1 activity and methods therefor” (Taivex Therapeutics Corporation, priority 2011, dated 2015).)
